# Test results: patent publication EP3939596A1, “A COMPOSITION FOR TREATING HELMINTH INFESTATION IN A MAMMAL” (Bimeda Animal Health Limited, priority 2020, dated 2022)
# Tests used:
# [1] = Solubility of α-hederin in 1,2-propanediol; assay type: physicochemical
# [2] = Stability of α-hederin solutions on storage (visual); assay type: physicochemical; conditions: for stability of solution: 10 wt.% α-hederin in 85.5 wt.% 1,2-Propanediol and 4.5 wt.% Benzyl alcohol
# [3] = Plasma/blood level after oral administration; assay type: in vivo; conditions: treated sheep
# Text: The Applicant has addressed the problems of the prior art by identifying a natural compound present in ivy (Hedera) that is effective at treating helminth infestations in a mammal. The natural compound is α-hederin, a water soluble pentacyclic triterpenoid saponin. The compound is quite a large molecule and would not be anticipated to be absorbed from the rumen following oral administration, but would be expected to be absorbed from the small intestine. […] This is highly surprising given the low plasma levels of α-hederin in treated sheep.
# IVL-11 is a relatively large particle and so would not be anticipated to be absorbed from the rumen following oral administration. Instead, absorption from the small intestine would be predicted.
# adult fluke = assay: In-vivo efficacy study: fluke counts at post mortem in infected sheep after oral treatment, compared with untreated control sheep; conditions: 50 mg/kg
# Procedure: Four sheep infected with adult fluke were treated with an IVL-11 oral solution formulation of Table 1: Table 1
# The solution was orally administered to the sheep to provide a dosage of α-hederin of 50 mg/kg and then worm counts compared to counts in untreated control sheep. Table 2: summary of efficacy following treatment of four sheep with IVL-11 orally at 50mg/kg compared with fluke counts in untreated control sheep
substance,measurement,setting,value
α-hederin [IVL-11],"solubility in 1,2-propanediol","[1]; 5% α-hederin in 1,2-propanediol",soluble
same,"solubility in 1,2-propanediol","[1]; 10% α-hederin in 1,2-propanediol",soluble
same,"stability (appearance) of solution in 1,2-propanediol","[2]; 5 % solution, 13 days at room temperature",cloudy at the top
same,"stability (appearance) of solution in 1,2-propanediol","[2]; 10 % solution, 13 days at room temperature",became cloudy
same,stability of solution,[2]; 6 months at 5°C,stable
same,stability of solution,[2]; 6 months at room temperature,stable
same,"stability (appearance) of solution in 1,2-propanediol","[2]; 35°C, over 3 weeks",no visible changes
same,plasma / blood levels following administration in vivo,[3],low
same,Arithmetic mean number of fluke at post mortem,"adult fluke; oral solution, 4 sheep",83
same,% efficacy (reduction in average fluke numbers compared to the control sheep),"adult fluke; oral, vs untreated control sheep",21.6%
